This is an account of results in patent publication US20050214367A1, “Processes for making coated phytochemicals and tocopherols and products formed therefrom” (priority 2004, published 2005).

Data set [1] is described as follows: Screen (mesh) particle size analysis. It counts as physicochemical. The settings on record: uncoated feed powder.
For data set [2] the following is noted: uncoated feed powder.
For data set [3] the following is noted: uncoated feed powder. The source holds these as a separate data set.

For the molecule `Cc1c(C)c2c(c(C)c1OC(=O)CCC(=O)O)CC[C@@](C)(CCC[C@H](C)CCC[C@H](C)CCCC(C)C)O2` [succinate (vitamin E), tocopherol succinate], the mean particle size entry in data set [1] is given as “about 200 mesh”. The loose bulk density in data set [2] is reported as 0.38 g/cc. Besides, in data set [3], the moisture content turned out to be 0.06 % by weight.
